Data taken from patent publication US20160200733A1, “SUBSTITUTED THIENO[2,3-B]PYRIDINE-2-CARBOXAMIDE ANALOGS AS POSITIVE ALLOSTERIC MODULATORS OF THE MUSCARINIC ACETYLCHOLINE RECEPTOR M4” (Vanderbilt University, priority 2013, published 2016).

What follows are compounds tested against T1, mAChR hM4 (Homo sapiens, UniProt P08173) (assay: mAChR M4 cell-based functional assay (calcium flux, potentiation of EC20 acetylcholine response)). Details: % ACh maximum at 30 μM; mAChR hM4 cell-line.
T1 construct: expressed in transfected cells; host or cells: CHO-K1 (Chinese hamster ovary) cells
T1 sequence (P08173 1-479): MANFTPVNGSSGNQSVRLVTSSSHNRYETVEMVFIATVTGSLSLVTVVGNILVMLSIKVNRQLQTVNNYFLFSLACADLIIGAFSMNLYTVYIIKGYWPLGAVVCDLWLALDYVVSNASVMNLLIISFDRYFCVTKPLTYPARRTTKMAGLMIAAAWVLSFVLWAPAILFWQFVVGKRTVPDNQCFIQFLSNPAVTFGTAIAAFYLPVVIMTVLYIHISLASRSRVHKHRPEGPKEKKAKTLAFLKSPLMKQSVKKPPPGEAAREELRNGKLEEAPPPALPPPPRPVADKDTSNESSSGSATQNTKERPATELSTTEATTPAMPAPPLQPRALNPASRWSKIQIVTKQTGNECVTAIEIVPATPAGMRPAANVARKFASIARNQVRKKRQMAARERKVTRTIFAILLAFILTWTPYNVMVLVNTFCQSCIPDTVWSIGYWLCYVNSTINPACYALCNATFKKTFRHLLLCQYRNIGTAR
How it was run: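 CHO-K1 cells expressing human M4, loaded with Fluo-4 Ca2+ dye; potentiation of an EC20 acetylcholine response read as increase in fluorescence static ratio. EC50 and Emax from concentration-dependent increase over the EC20 response.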
For `COc1ccc(CNC(=O)c2cc3c(C)cc(C)nc3s2)cc1F` [Compound 84, N-(3-fluoro-4-methoxybenzyl)-4,6-dimethylthieno[2,3-b]pyridine-2-carboxamide], the Emax at 30 µM was 49%. For `Cc1cnc2sc(C(=O)NCc3ccc(-c4cccnc4F)cc3)cc2c1C` [Compound 101, N-(4-(2-fluoropyridin-3-yl)benzyl)-4,5-dimethylthieno[2,3-b]pyridine-2-carboxamide], the Emax at 30 µM was 41%. `Cc1cnc2sc(C(=O)NC3COC3)cc2c1C` [Compound 102, 4,5-dimethyl-N-(oxetan-3-yl)thieno[2,3-b]pyridine-2-carboxamide] gave an Emax at 30 µM of 60%. Compound `Cc1cnc2sc(C(=O)NC3CN(c4cccnc4)C3)cc2c1C` [Compound 103, 4,5-dimethyl-N-(1-(pyridin-3-yl)azetidin-3-yl)thieno[2,3-b]pyridine-2-carboxamide] has an Emax at 30 µM of 76%.

Same assay, conditions: mAChR hM4 cell-line; >10,000 estimated for low potency compounds lacking a plateau
`COc1ccc(CNC(=O)c2cc3c(C)cc(C)nc3s2)cc1F` [Compound 84, N-(3-fluoro-4-methoxybenzyl)-4,6-dimethylthieno[2,3-b]pyridine-2-carboxamide] was tested, and the EC50 was 6.7 µM. `Cc1cc(C)c2cc(C(=O)NCc3ccc(S(=O)(=O)C(F)(F)F)cc3)sc2n1` [Compound 85, 4,6-dimethyl-N-(4-((trifluoromethyl)sulfonyl)benzyl)thieno[2,3-b]pyridine-2-carboxamide] gave an EC50 of over 10 µM. `Cc1nc2sc(C(=O)N3CCC(c4ccccc4)C3)c(-c3cnn(C)c3)c2c(C)c1Cl` (stereo not drawn) [Compound 86, (5-chloro-4,6-dimethyl-3-(1-methyl-1H-pyrazol-4-yl)thieno[2,3-b]pyridin-2-yl)(3-phenylpyrrolidin-1-yl)methanone] gave an EC50 of over 10 µM. For `Cc1nc2sc(C(=O)NC3CCC3)c(-c3cnn(C)c3)c2c(C)c1Cl` [Compound 87, 5-chloro-N-cyclobutyl-4,6-dimethyl-3-(1-methyl-1H-pyrazol-4-yl)thieno[2,3-b]pyridine-2-carboxamide], the EC50 was over 10 µM. For `Cc1nc2sc(C(=O)NC3CCCOC3)c(-c3cnn(C)c3)c2c(C)c1Cl` (stereo not drawn) [Compound 88, 5-chloro-4,6-dimethyl-3-(1-methyl-1H-pyrazol-4-yl)-N-(tetrahydro-2H-pyran-3-yl)thieno[2,3-b]pyridine-2-carboxamide], the EC50 was over 10 µM. `Cc1nc2sc(C(=O)NC3CCS(=O)(=O)C3)c(-c3cnn(C)c3)c2c(C)c1Cl` (stereo not drawn) [Compound 89, 5-chloro-N-(1,1-dioxidotetrahydrothiophen-3-yl)-4,6-dimethyl-3-(1-methyl-1H-pyrazol-4-yl)thieno[2,3-b]pyridine-2-carboxamide] showed an EC50 of over 10 µM. For `Cc1nc2sc(C(=O)NC3CC3)c(-c3cnn(C)c3)c2c(C)c1Cl` [Compound 90, 5-chloro-N-cyclopropyl-4,6-dimethyl-3-(1-methyl-1H-pyrazol-4-yl)thieno[2,3-b]pyridine-2-carboxamide], the EC50 was over 10 µM. For `Cc1nc2sc(C(=O)NC3CCOC3)c(-c3cnn(C)c3)c2c(C)c1Cl` (stereo not drawn) [Compound 91, 5-chloro-4,6-dimethyl-3-(1-methyl-1H-pyrazol-4-yl)-N-(tetrahydrofuran-3-yl)thieno[2,3-b]pyridine-2-carboxamide], the EC50 was over 10 µM. In the case of `Cc1nc2sc(C(=O)NC3CN(c4cccnc4)C3)c(-c3cnn(C)c3)c2c(C)c1Cl` [Compound 92, 5-chloro-4,6-dimethyl-3-(1-methyl-1H-pyrazol-4-yl)-N-(1-(pyridin-3-yl)azetidin-3-yl)thieno[2,3-b]pyridine-2-carboxamide], the EC50 is reported as over 10 µM. Compound `Cc1nc2sc(C(=O)NC3C4CC5CC(C4)CC3C5)c(-c3cnn(C)c3)c2c(C)c1Cl` (stereo not drawn) [Compound 93, N-(adamantan-2-yl)-5-chloro-4,6-dimethyl-3-(1-methyl-1H-pyrazol-4-yl)thieno[2,3-b]pyridine-2-carboxamide] has an EC50 of over 10 µM. `Cc1nc2sc(C(=O)NC3[C@H]4C[C@H]3C4)c(-c3cnn(C)c3)c2c(C)c1Cl` (stereo partly drawn) [Compound 94, N-((1R,3S)-bicyclo[1.1.1]pentan-2-yl)-5-chloro-4,6-dimethyl-3-(1-methyl-1H-pyrazol-4-yl)thieno[2,3-b]pyridine-2-carboxamide] was tested, and the EC50 was over 10 µM. In the case of `Cc1nc2sc(C(=O)NCc3ccc(S(=O)(=O)C(F)(F)F)cc3)c(-c3cnn(C)c3)c2c(C)c1Cl` [Compound 95, 5-chloro-4,6-dimethyl-3-(1-methyl-1H-pyrazol-4-yl)-N-(4-((trifluoromethyl)sulfonyl)benzyl)thieno[2,3-b]pyridine-2-carboxamide], the EC50 is reported as over 10 µM. `Cc1nc2sc(C(=O)N[C@H](C)C3CC3)c(-c3cnn(C)c3)c2c(C)c1Cl` [Compound 96, (R)-5-chloro-N-(1-cyclopropylethyl)-4,6-dimethyl-3-(1-methyl-1H-pyrazol-4-yl)thieno[2,3-b]pyridine-2-carboxamide] showed an EC50 of over 10 µM. `Cc1nc2sc(C(=O)N3CCC3)c(-c3cnn(C)c3)c2c(C)c1Cl` [Compound 97, azetidin-1-yl(5-chloro-4,6-dimethyl-3-(1-methyl-1H-pyrazol-4-yl)thieno[2,3-b]pyridin-2-yl)methanone] showed an EC50 of over 10 µM. Work on `Cc1nc2sc(C(=O)NCc3cnn(-c4ccccc4)c3)c(-c3cnn(C)c3)c2c(C)c1Cl` [Compound 98, 5-chloro-4,6-dimethyl-3-(1-methyl-1H-pyrazol-4-yl)-N-((1-phenyl-1H-pyrazol-4-yl)methyl)thieno[2,3-b]pyridine-2-carboxamide] yielded an EC50 of over 10 µM. `COc1ccc(CNC(=O)c2sc3nc(C)c(Cl)c(C)c3c2-c2cnn(C)c2)cc1F` [Compound 99, 5-chloro-N-(3-fluoro-4-methoxybenzyl)-4,6-dimethyl-3-(1-methyl-1H-pyrazol-4-yl)thieno[2,3-b]pyridine-2-carboxamide] was tested, and the EC50 was over 10 µM. With `Cc1cnc2sc(C(=O)NC3CN(c4ccc(C(F)(F)F)nc4)C3)cc2c1C` [Compound 100, 4,5-dimethyl-N-(1-(6-(trifluoromethyl)pyridin-3-yl)azetidin-3-yl)thieno[2,3-b]pyridine-2-carboxamide] the EC50 was over 10 µM. `Cc1cnc2sc(C(=O)NCc3ccc(-c4cccnc4F)cc3)cc2c1C` [Compound 101, N-(4-(2-fluoropyridin-3-yl)benzyl)-4,5-dimethylthieno[2,3-b]pyridine-2-carboxamide] gave an EC50 of 2.7 µM. With `Cc1cnc2sc(C(=O)NC3COC3)cc2c1C` [Compound 102, 4,5-dimethyl-N-(oxetan-3-yl)thieno[2,3-b]pyridine-2-carboxamide] the EC50 was over 10 µM. In the case of `Cc1cnc2sc(C(=O)NC3CN(c4cccnc4)C3)cc2c1C` [Compound 103, 4,5-dimethyl-N-(1-(pyridin-3-yl)azetidin-3-yl)thieno[2,3-b]pyridine-2-carboxamide], the EC50 is reported as 0.58 µM. Compound `Cc1cnc2sc(C(=O)NCc3ccc(-c4ccnnc4)s3)cc2c1C` [Compound 104, 4,5-dimethyl-N-((5-(pyridazin-4-yl)thiophen-2-yl)methyl)thieno[2,3-b]pyridine-2-carboxamide] has an EC50 of over 10 µM. Compound `Cc1nc2sc(C(=O)NCC3CCC3)c(-c3cnn(C)c3)c2c(C)c1Cl` [Compound 105, 5-chloro-N-(cyclobutylmethyl)-4,6-dimethyl-3-(1-methyl-1H-pyrazol-4-yl)thieno[2,3-b]pyridine-2-carboxamide] has an EC50 of over 10 µM. In the case of `Cc1nc2sc(C(=O)N3CCCOCC3)c(-c3cnn(C)c3)c2c(C)c1Cl` [Compound 106, (5-chloro-4,6-dimethyl-3-(1-methyl-1H-pyrazol-4-yl)thieno[2,3-b]pyridin-2-yl)(1,4-oxazepan-4-yl)methanone], the EC50 is reported as over 10 µM. With `Cc1nc2sc(C(=O)N3CCN(C)CC3)c(-c3cnn(C)c3)c2c(C)c1Cl` [Compound 107, (5-chloro-4,6-dimethyl-3-(1-methyl-1H-pyrazol-4-yl)thieno[2,3-b]pyridin-2-yl)(4-methylpiperazin-1-yl)methanone] the EC50 was over 10 µM. Compound `Cc1nc2sc(C(=O)N3CCC(F)(F)CC3)c(-c3cnn(C)c3)c2c(C)c1Cl` [Compound 108, (5-chloro-4,6-dimethyl-3-(1-methyl-1H-pyrazol-4-yl)thieno[2,3-b]pyridin-2-yl)(4,4-difluoropiperidin-1-yl)methanone] has an EC50 of over 10 µM. With `Cc1nc2sc(C(=O)N3CC4C(C3)C4(C)C)c(-c3cnn(C)c3)c2c(C)c1Cl` (stereo not drawn) [Compound 109, (5-chloro-4,6-dimethyl-3-(1-methyl-1H-pyrazol-4-yl)thieno[2,3-b]pyridin-2-yl)(6,6-dimethyl-3-azabicyclo[3.1.0]hexan-3-yl)methanone] the EC50 was over 10 µM. In the case of `Cc1nc2sc(C(=O)N3CCOCC3)c(-c3cnn(C)c3)c2c(C)c1Cl` [Compound 110, (5-chloro-4,6-dimethyl-3-(1-methyl-1H-pyrazol-4-yl)thieno[2,3-b]pyridin-2-yl)(morpholino)methanone], the EC50 is reported as over 10 µM. For `Cc1nc2sc(C(=O)N[C@@H](C)C3CC3)c(-c3cnn(C)c3)c2c(C)c1Cl` [Compound 111, (S)-5-chloro-N-(1-cyclopropylethyl)-4,6-dimethyl-3-(1-methyl-1H-pyrazol-4-yl)thieno[2,3-b]pyridine-2-carboxamide], the EC50 was over 10 µM. `Cc1nc2sc(C(=O)NCC3CC3)c(-c3cnn(C)c3)c2c(C)c1Cl` [Compound 112, 5-chloro-N-(cyclopropylmethyl)-4,6-dimethyl-3-(1-methyl-1H-pyrazol-4-yl)thieno[2,3-b]pyridine-2-carboxamide] was tested, and the EC50 was over 10 µM. With `Cc1nc2sc(C(=O)N3CCCN(C)CC3)c(-c3cnn(C)c3)c2c(C)c1Cl` [Compound 113, (5-chloro-4,6-dimethyl-3-(1-methyl-1H-pyrazol-4-yl)thieno[2,3-b]pyridin-2-yl)(4-methyl-1,4-diazepan-1-yl)methanone] the EC50 was over 10 µM. Work on `Cc1nc2sc(C(=O)NC3COC3)c(-c3ccc4nonc4c3)c2c(C)c1Cl` [Compound 114, 3-(benzo[c][1,2,5]oxadiazol-5-yl)-5-chloro-4,6-dimethyl-N-(oxetan-3-yl)thieno[2,3-b]pyridine-2-carboxamide] yielded an EC50 of over 10 µM. `Cc1nc2sc(C(=O)NC3COC3)c(-c3cccs3)c2c(C)c1Cl` [Compound 115, 5-chloro-4,6-dimethyl-N-(oxetan-3-yl)-3-(thiophen-2-yl)thieno[2,3-b]pyridine-2-carboxamide] gave an EC50 of over 10 µM.
